Results taken from ChEMBL document CHEMBL5241090, “A comprehensive overview of β-carbolines and its derivatives as anticancer agents” (Eur J Med Chem, 2021).
In brackets after ≈: the same amount, converted by molar mass.

Tests used:
KB = test: Cytotoxicity against human KB cells assessed as inhibition of growth measured after 1 day by hemacytometer; assay type: functional; conditions: 24 h, read-out: ED50 (the source's name)
Huh-7 = test: Cytotoxicity against human Huh-7 cells; assay type: functional, cell-based
MCF7 [1] = test: Cytotoxicity against human MCF7 cells; assay type: functional, cell-based
HCT-116 [2] = test: Cytotoxicity against human HCT-116 cells; assay type: functional, cell-based
A549 [3] = test: Growth inhibition of human A549 cells incubated for 72 hrs by SRB assay; assay type: functional, cell-based; conditions: A549, 72 h
HT-29 = test: Growth inhibition of human HT-29 cells incubated for 72 hrs by SRB assay; assay type: functional, cell-based; conditions: HT-29, 72 h
MDA-MB-231 = test: Growth inhibition of human MDA-MB-231 cells incubated for 72 hrs by SRB assay; assay type: functional, cell-based; conditions: MDA-MB-231, 72 h
OVCAR-3 [4] = test: Cytotoxicity against human OVCAR-3 cells by MTT assay; assay type: functional, cell-based
MCF7 [5] = test: Cytotoxicity against human MCF7 cells by MTT assay; assay type: functional, cell-based
HCT-116 [6] = test: Cytotoxicity against human HCT-116 cells by MTT assay; assay type: functional, cell-based
A549 [7] = test: Cytotoxicity against human A549 cells; assay type: functional, cell-based
OVCAR-3 [8] = test: Cytotoxicity against human OVCAR-3 cells; assay type: functional, cell-based
NCI-H187 = test: Cytotoxicity against human NCI-H187 cells; assay type: functional, cell-based
HepG2 [9] = test: Cytotoxicity against human HepG2 cells; assay type: functional, cell-based; conditions: read-out: TC50 (the source's name)
HepG2 [10] = test: Cytotoxicity against human HepG2 cells assessed as reduction in optical density by MTT assay; assay type: functional, cell-based
SGC-7901 [11] = test: Cytotoxicity against human SGC-7901 cells assessed as reduction in optical density by MTT assay; assay type: functional, cell-based
[12] = Cytotoxicity against human 95-D cells assessed as reduction in optical density by MTT assay; assay type: functional, cell-based
SGC-7901 [13] = test: Cytotoxicity against human SGC-7901 cells measured after 48 hrs by MTT assay; assay type: functional, cell-based; conditions: SGC-7901, 48 h
A549 [14] = test: Cytotoxicity against human A549 cells measured after 48 hrs by MTT assay; assay type: functional, cell-based; conditions: A549, 48 h
HeLa = test: Cytotoxicity against human HeLa cells measured after 48 hrs by MTT assay; assay type: functional, cell-based
SMMC-7721 = test: Cytotoxicity against human SMMC-7721 cells measured after 48 hrs by MTT assay; assay type: functional, cell-based; conditions: SMMC-7721, 48 h
[15] = molecular target: T1, Kinesin-like protein KIF11 (Homo sapiens, UniProt P52732); test: Inhibition of KSP (unknown origin)
T1 sequence (P52732 whole entry): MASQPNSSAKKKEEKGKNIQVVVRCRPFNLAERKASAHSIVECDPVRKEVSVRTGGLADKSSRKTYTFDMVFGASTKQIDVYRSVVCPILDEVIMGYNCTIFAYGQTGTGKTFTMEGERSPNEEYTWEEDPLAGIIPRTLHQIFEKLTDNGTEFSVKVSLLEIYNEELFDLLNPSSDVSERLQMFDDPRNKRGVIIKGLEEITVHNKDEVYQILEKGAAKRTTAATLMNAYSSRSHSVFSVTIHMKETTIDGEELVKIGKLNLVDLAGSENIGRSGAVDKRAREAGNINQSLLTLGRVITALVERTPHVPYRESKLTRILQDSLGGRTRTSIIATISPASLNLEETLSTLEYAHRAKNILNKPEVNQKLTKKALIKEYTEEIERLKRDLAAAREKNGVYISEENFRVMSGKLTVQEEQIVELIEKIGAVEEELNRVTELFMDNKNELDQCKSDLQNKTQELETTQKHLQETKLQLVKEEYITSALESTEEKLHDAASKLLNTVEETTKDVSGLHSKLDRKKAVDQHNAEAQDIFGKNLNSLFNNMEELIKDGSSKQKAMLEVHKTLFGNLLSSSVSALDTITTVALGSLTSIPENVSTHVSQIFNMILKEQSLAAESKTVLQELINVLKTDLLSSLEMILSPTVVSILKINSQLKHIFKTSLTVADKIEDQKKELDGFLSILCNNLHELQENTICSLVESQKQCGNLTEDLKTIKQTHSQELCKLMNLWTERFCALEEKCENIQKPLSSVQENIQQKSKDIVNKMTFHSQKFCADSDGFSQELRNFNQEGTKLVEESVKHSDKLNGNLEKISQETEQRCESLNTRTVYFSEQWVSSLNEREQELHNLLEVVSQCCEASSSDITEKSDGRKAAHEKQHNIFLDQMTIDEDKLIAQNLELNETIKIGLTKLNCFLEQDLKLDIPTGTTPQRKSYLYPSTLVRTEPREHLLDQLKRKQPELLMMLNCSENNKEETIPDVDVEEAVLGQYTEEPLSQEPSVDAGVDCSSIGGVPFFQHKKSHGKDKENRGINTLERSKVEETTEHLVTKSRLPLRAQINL

DNA topoisomerase 1 = molecular target: T2, DNA topoisomerase 1 (Homo sapiens, UniProt P11387); test: Inhibition of Topoisomerase 1 (unknown origin)
T2 sequence (P11387 whole entry): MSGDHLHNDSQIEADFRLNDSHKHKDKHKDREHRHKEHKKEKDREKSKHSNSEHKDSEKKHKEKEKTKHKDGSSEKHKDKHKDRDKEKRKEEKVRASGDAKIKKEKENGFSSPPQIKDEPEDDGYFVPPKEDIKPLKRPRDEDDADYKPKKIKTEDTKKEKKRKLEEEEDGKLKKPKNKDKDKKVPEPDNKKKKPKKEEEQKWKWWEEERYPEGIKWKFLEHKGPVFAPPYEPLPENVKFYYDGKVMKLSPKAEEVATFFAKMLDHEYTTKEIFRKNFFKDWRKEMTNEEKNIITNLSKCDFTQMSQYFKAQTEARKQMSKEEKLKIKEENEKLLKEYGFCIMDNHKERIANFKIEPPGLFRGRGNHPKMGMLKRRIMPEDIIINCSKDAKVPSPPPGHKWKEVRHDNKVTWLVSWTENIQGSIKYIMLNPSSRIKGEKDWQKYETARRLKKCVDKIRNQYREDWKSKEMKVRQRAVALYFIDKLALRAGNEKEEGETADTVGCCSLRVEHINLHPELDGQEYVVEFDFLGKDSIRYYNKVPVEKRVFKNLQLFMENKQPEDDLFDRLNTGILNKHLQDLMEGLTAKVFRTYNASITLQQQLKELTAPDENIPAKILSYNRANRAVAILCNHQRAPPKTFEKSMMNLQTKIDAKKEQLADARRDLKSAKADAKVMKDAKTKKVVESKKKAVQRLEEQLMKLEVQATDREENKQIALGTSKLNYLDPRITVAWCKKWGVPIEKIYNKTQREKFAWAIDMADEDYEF

HUVEC = test: Cytotoxicity against human HUVEC cells; assay type: functional, cell-based
TERT-RPE1 = test: Cytotoxicity against human TERT-RPE1 cells; assay type: functional, cell-based; conditions: RPE-1
Col2 = test: Cytotoxicity against human Col2 cells; assay type: functional, cell-based
[16] = Cytotoxicity against human Lu1 cells; assay type: functional, cell-based
LNCaP = test: Cytotoxicity against human LNCaP cells; assay type: functional, cell-based
MG-63 = test: Cytotoxicity against human MG-63 cells; assay type: functional, cell-based
PC-3 = test: Cytotoxicity against human PC-3 cells measured after 48 hrs by MTT assay; assay type: functional, cell-based; conditions: PC-3, 48 h
HGC-27 = test: Cytotoxicity against human HGC-27 cells measured after 48 hrs by MTT assay; assay type: functional, cell-based; conditions: HGC-27, 48 h
MCF7 [17] = test: Cytotoxicity against human MCF7 cells measured after 48 hrs by MTT assay; assay type: functional, cell-based; conditions: MCF7, 48 h
HT-1080 = test: Cytotoxicity against human HT-1080 cells; assay type: functional, cell-based

Compound: COc1cnc2ccc(=O)n3c4cccc(O)c4c1c23
- EC50 (KB): 2 µg/mL (≈ 7.51 µM)

Compound: Cc1ccc(-c2nc(NCc3ccc(C(=O)NO)cc3)cc3c2[nH]c2ccccc23)cc1
- IC50 (Huh-7): 0.53 µM
- IC50 (MCF7 [1]): 0.53 µM
- IC50 (HCT-116 [2]): 0.53 µM

Compound: O=C(O)c1c(-c2c[nH]c3cc(O)ccc23)ncc2[nH]c3ccc(O)cc3c12
- IC50 (A549 [3]): 30 µg/mL (≈ 83.5 µM)
- IC50 (HT-29): 42 µg/mL (≈ 117 µM)
- IC50 (MDA-MB-231): 25 µg/mL (≈ 69.6 µM)

Compound: COc1ccc2c3ccnc(C)c3n(CC(=O)N/N=C/c3ccc(C(C)(C)C)cc3)c2c1
- IC50 (OVCAR-3 [4]): 2.5 µM
- IC50 (MCF7 [5]): 4 µM
- IC50 (HCT-116 [6]): 5 µM

Compound: CNCC(O)c1ccc(O)c(C2(O)c3ccccc3-[n+]3ccc4c([nH]c5ccccc54)c32)c1 (configuration not stated)
- IC50 (A549 [7]): 27 µg/mL
- IC50 (OVCAR-3 [8]): 27 µg/mL
- IC50 (MCF7 [1]): 27 µg/mL

Compound: COc1ccc2c3ccnc(C)c3n(CC3CC(c4ccccc4)=NO3)c2c1 (configuration not stated)
- IC50 (MCF7 [5]): 0.8 µM

Compound: C[C@H](O)c1nc(O)cc2c1[nH]c1ccccc12
- IC50 (NCI-H187): 79.9 µM

Compound: COc1cccc2c1c1c(O)cnc3ccc(=O)n2c31
- EC50 (KB): 2 µg/mL (≈ 7.51 µM)

Compound: O=C(O)[C@H](O)Cc1nccc2c1[nH]c1ccccc12
- CC50 (HepG2 [9]): 39 µM

Compound: CCn1c2cc(OC)ccc2c2ccnc(C)c21
- IC50 (HepG2 [10]): < 36 µM
- IC50 (SGC-7901 [11]): < 36 µM
- IC50 [12]: 36 µM

Compound: O=C(OCCCCCOC(=O)c1cc2c3ccccc3n(Cc3ccccc3F)c2cn1)c1cc2c3ccccc3n(Cc3ccccc3F)c2cn1
- IC50 (SGC-7901 [13]): 5.61 µM
- IC50 (A549 [14]): 5.61 µM
- IC50 (HeLa): 5.61 µM
- IC50 (SMMC-7721): 5.61 µM

Compound: Cc1ccc(-n2c(-c3cc4c([nH]c5ccccc54)c(-c4cccc(O)c4)n3)n[nH]c2=S)cc1
- IC50 [15]: 8.91 µM
- IC50 (DNA topoisomerase 1): 2.5 µM

Compound: O=c1cc2c3ccccc3n3c(=O)ccc([nH]1)c23
- IC50 (HUVEC): 0.506 µM
- IC50 (TERT-RPE1): 0.506 µM
- IC50 (Col2): 0.506 µM
- IC50 [16]: 0.506 µM
- IC50 (LNCaP): 0.506 µM

Compound: NC(=O)c1c(-c2c[nH]c3cc(O)ccc23)ncc2[nH]c3ccc(O)cc3c12
- IC50 (A549 [3]): 35 µg/mL (≈ 97.7 µM)
- IC50 (HT-29): 45 µg/mL (≈ 126 µM)
- IC50 (MDA-MB-231): 42 µg/mL (≈ 117 µM)

Compound: CSc1nnc(-c2cc3c([nH]c4ccccc43)c(-c3cccc(O)c3)n2)o1
- IC50 [15]: 8.73 µM
- IC50 (DNA topoisomerase 1): 7.8 µM

Compound: O=C(c1cc2c([nH]c3ccccc32)c(-c2ccccc2)n1)N1CCN(S(=O)(=O)c2ccccc2)CC1
- IC50 (MG-63): 0.59 µM

Compound: COc1ccc(-c2nc(Cn3cc(CN4C(=O)c5cccc6cccc(c56)C4=O)nn3)cc3c2[nH]c2ccccc23)cc1OC
- IC50 (PC-3): 7.46 µM
- IC50 (HGC-27): 7.46 µM
- IC50 (HeLa): 7.46 µM
- IC50 (MCF7 [17]): 7.46 µM

Compound: COc1ccc2c3ccnc4c(OC)cc(=O)n(c2c1)c43
- IC50 (HT-1080): 5 µM
